Assay results: patent publication US6696486B1, “Medical use for atypical β-adrenoceptor agonists” (Glaxo Group Limited, priority 1992, dated 2004)

Tests used:
[1] = tested on: indomethacin-induced antral damage; test: indomethacin-induced gastric antral lesions in the re-fed rat (Method 2); format: in vivo; conditions: for % Protection: single dose 30 minutes before indomethacin (60 mg/kg s.c.)
Text: An experimental model in which atypical beta-adrenoceptor agonists may be shown to be of use in the treatment of gastrointestinal disorders is described below as Method 2. The procedure is based upon that described by H. Satoh et. al., Gastroenterology, 81, 719-725 (1981) in which the effect of compounds on indomethacin-induced gastric antral lesions in the re-fed rat is investigated. Indomethacin is an example of the class of compound known as non-steroidal anti-inflammatory drugs (NSAIDs), the use of which is frequently associated with gastrointestinal ulcers.
Food (but not water) is withheld from female random hooded rats (70-120 g) for 24 hours and then the rats are re-fed with Rat and Mouse No. 1 Maintenance Diet. After 1 hour of access to food, the rats are dosed orally with either the test compound or solvent (0.5% w/v methyl cellulose in water). 30 minutes later, indomethacin (60 mg/kg; dissolved in 1% w/v NaHCO3 in saline) is administered as a single subcutaneous injection at the back of the neck. Subsequently, the rats are allowed food, but water is withheld, and the animals are humanely killed by cervical dislocation at 6 hours post dose. Control animals received a single subcutaneous dose of the appropriate solvent.
The rat's stomach is removed (with a small amount of duodenum attached), opened along the greater curvature and the contents removed by washing with 0.9% w/v sodium chloride solution (saline). The opened stomach is pinned out (mucosal surface uppermost) on a polystyrene mat and the area of damage assessed by placing a grid (composed of 1 mm squares) over the antral region. Antral damage appears as discrete black or dark brown ulcers. The total area of antral damage is then expressed as a percentage of the total surface area of the antrum.
The protective effect of the test compound on indomethacin-induced antral damage is calculated as a percentage using the following equation: [formula]

[2] = tested on: indomethacin-induced ulceration of the small intestine; test: indomethacin-induced ulceration of the small intestine in the rat (Method 3); format: in vivo; conditions: single dose 30 minutes before indomethacin (15 mg/kg p.o.)
Method: Another experimental model in which atypical beta-adrenocopter agonists may be shown to be of use in the treatment of gastrointestinal disorders is described below as Method 3. This is a model of indomethacin-induced ulceration of the small intestine in the rat.
Female random hooded rats (100-150 g) are allowed free access to food and water. The rats are dosed orally with either the test compound (1 ml per 100 g of an appropriated dose) or solvent (0.5% w/v methyl cellulose in water). 30 minutes later, indomethacin (15 mg/kg) is administered orally using a dose volume of 1 ml per 100 g of a 1.5 mg/ml solution of indomethacin in 1% w/v NaHCO3. The animals are humanely killed by cervical dislocation at 48 hours post dose.
The rat's small intestine is removed, opened along its length and the contents removed by washing with 0.9% w/v sodium chloride solution (saline). The opened small intestine is pinned out (mucosal surface uppermost) on a polystyrene mat and the area of damage assessed by placing a grid (composed of 1 mm squares) over the preparation. The number of visible ulcers (appearing as discrete black or brown lesions) running the length of the small intestine is counted. The protective effect of the test compound is calculated as a percentage using the following equation: [formula]

[3] = tested on: piroxicam-induced antral damage; format: in vivo, rat
[4] = inhibition of indomethacin-induced antral ulceration in rat
[5] = 0.5 mg/kg p.o., single dose 30 minutes before NSAID

Compound: COC(=O)COc1ccc(C[C@@H](C)NC[C@H](O)c2cccc(Cl)c2)cc1 [(R,R)-N-[2-(4-carbomethoxymethoxyphenyl)-1-methylethyl]-2-hydroxy-2-(3-chlorophenyl)ethanamine]
- Maximum Inhibition (dose; mg/kg p.o.) ([1]; dose 3 mg/kg p.o.): 100% (3)
- ED50 [1, 4]: 0.02 mg/kg p.o.

Compound: C[C@H](Cc1ccc(OCC(=O)O)cc1)NC[C@H](O)c1cccc(Cl)c1 [(R,R)-N-[2-(4-carboxymethoxyphenyl)-1-methylethyl]-2-hydroxy-2-(3-chlorophenyl)ethanamine]
- Maximum Inhibition (dose; mg/kg p.o.) ([1]; dose 3 mg/kg p.o.): 100% (3)
- ED50 [1, 4]: 0.03 mg/kg p.o.

Compound: C[C@H](Cc1ccc2c(c1)OC(C(=O)O)(C(=O)O)O2)NC[C@@H](O)c1cccc(Cl)c1 [(R,S)-5-(2-((2-(3-chlorophenyl)-2-hydroxyethyl)amino)propyl)-1,3-benzodioxole-2,2-dicarboxylic acid]
- Maximum Inhibition (dose; mg/kg p.o.) ([1]; dose 1 mg/kg p.o.): 64% (1)
- ED50 [1, 4]: 0.6 mg/kg p.o.

Compound: COC(=O)COc1ccc(C[C@H](C)NC[C@H](O)c2cccc(Cl)c2)cc1 [(R,S)-N-[2-(4-carbomethoxymethoxyphenyl)-1-methylethyl]-2-hydroxy-2-(3-chlorophenyl)ethanamine]
- Maximum Inhibition (dose; mg/kg p.o.) ([1]; dose 3 mg/kg p.o.): 93% (3)
- ED50 [1, 4]: 0.2 mg/kg p.o.

Compound: C[C@@H](Cc1ccc(OCC(=O)O)cc1)NC[C@H](O)c1cccc(Cl)c1 [(R,S)-N-[2-(4-carboxymethoxyphenyl)-1-methylethyl]-2-hydroxy-2-(3-chlorophenyl)ethanamine]
- Maximum Inhibition (dose; mg/kg p.o.) ([1]; dose 3 mg/kg p.o.): 77% (3)
- ED50 [1, 4]: 0.3 mg/kg p.o.

Compound: COC(=O)COc1ccc(C[C@@H](C)NC[C@@H](O)c2cccc(Cl)c2)cc1 [(S,R)-N-[2-(4-carbomethoxymethoxyphenyl)-1-methylethyl]-2-hydroxy-2-(3-chlorophenyl)ethanamine]
- Maximum Inhibition (dose; mg/kg p.o.) ([1]; dose 3 mg/kg p.o.): 88% (3)
- ED50 [1, 4]: 0.5 mg/kg p.o.

Compound: C[C@@H](Cc1ccc(OCC(=O)O)cc1)NC[C@@H](O)c1cccc(Cl)c1 [(S,S)-N-[2-(4-carboxymethoxyphenyl)-1-methylethyl]-2-hydroxy-2-(3-chlorophenyl)ethanamine]
- Maximum Inhibition (dose; mg/kg p.o.) ([1]; dose 3 mg/kg p.o.): 97% (3)
- ED50 [1, 4]: 0.8 mg/kg p.o.

Compound: COC(=O)COc1ccc(CC(C)NCC(O)c2cccc(Cl)c2)cc1 (stereo not shown) [BRL 35135, N-[2-(4-carbomethoxymethoxyphenyl)-1-methylethyl]-2-hydroxy-2-(3-chlorophenyl)ethanamine]
- % Protection ([1]; 20 μg/kg p.o.): 40%
- % Protection ([1]; 50 μg/kg p.o.): 48%
- % Protection ([1]; 100 μg/kg p.o.): 88%
- % Protection ([1]; 500 μg/kg p.o.): 97%
- ED50 ([1]; gastro-protection against indomethacin-induced antral damage, rat): approximately 50 μg/kg p.o.
- % inhibition ([2]; 0.05 mg/kg p.o.): 24 ± 15%
- % inhibition ([2]; 0.1 mg/kg p.o.): 35 ± 7%
- % inhibition ([2]; 0.5 mg/kg p.o.): 76 ± 3%
- % inhibition ([2]; 2.5 mg/kg p.o.): 85 ± 3%
- % inhibition ([2]; 10 mg/kg p.o.): 80 ± 3%

Compound: C[C@H](Cc1ccc2c(c1)OC(C(=O)O)(C(=O)O)O2)NC[C@H](O)c1cccc(Cl)c1 [CL 316243, (R,R)-5-(2-((2-(3-chlorophenyl)-2-hydroxyethyl)amino)propyl)-1,3-benzodioxole-2,2-dicarboxylic acid]
- % inhibition of piroxicam-induced damage [3, 5]: 96%
- % inhibition of indomethacin-induced damage [1, 5]: 83%
- Maximum Inhibition (dose; mg/kg p.o.) ([1]; dose 1 mg/kg p.o.): 96% (1)
- ED50 [1, 4]: 0.03 mg/kg p.o.
- % inhibition ([2]; 10 mg/kg p.o.): 93 ± 4%

Compound: COc1ccc2c(c1)c(CC(=O)O)c(C)n2C(=O)c1ccc(Cl)cc1 [indomethacin, reference compound]
- percentage area of damage (antral) ([1]; subcutaneous dose of 60 mg/kg, rat): 19±5%

Compound: CN1C(C(=O)Nc2ccccn2)=C(O)c2ccccc2S1(=O)=O [piroxicam, reference compound]
- percentage area of antral damage ([3]; female, random hooded, rat, in vivo, sc, 60 mg/kg, 6 h): 21±3%
